From ChEMBL document CHEMBL5052854, “Alpha-5 beta-1 inhibitors” (2021)
pIC50: −log10 of the molar value.

system: FG2; experiment: Inhibition of cell adhesion in human FG2 cells assessed as decrease in cell adhesion to matrix incubated for 1 hr by crystal violet staining based assay; format: functional; details: FG2, 1 h

Question: How did the pIC50 turn out when `Cc1ccnc(Nc2cccc(C(=O)NCC(=O)NC[C@H](NC(=O)c3c(Cl)cccc3Cl)C(=O)O)c2)c1` was run?
Answer: > 5.00

Question: `O=C(CNC(=O)c1cccc(NC2=NCC(F)(F)CN2)c1)NC[C@H](NC(=O)c1c(Cl)cc(-c2ccc3cn[nH]c3c2)cc1Cl)C(=O)O` was tested. Which pIC50 did it give?
Answer: > 7.00

Question: `O=C(CNC(=O)c1cccc(NC2=NCCCN2)c1)NC[C@H](NC(=O)c1c(Cl)cccc1Cl)C(=O)O` was tested. Which pIC50 did it give?
Answer: > 7.00

Question: With `CNc1cccc(C(=O)NCC(=O)NC[C@H](NC(=O)c2c(Cl)cc(-c3ccccc3)cc2Cl)C(=O)O)n1` as the molecule, how does the pIC50 read?
Answer: 6.00

Question: How did the pIC50 turn out when `O=C(CNC(=O)c1cccc(NC2=NCC(O)CN2)c1)NC[C@H](NC(=O)c1c(Cl)cc(-c2ccccc2)cc1Cl)C(=O)O` (stereo partly drawn) was run?
Answer: > 7.00

Question: `N=C(N)Nc1cccc(C(=O)NCC(=O)NC[C@H](NC(=O)c2c(Cl)cc(-c3ccccc3)cc2Cl)C(=O)O)c1` was tested. Which pIC50 did it give?
Answer: > 7.00

Question: `N#C/N=C(\N)Nc1cccc(C(=O)NCC(=O)NC[C@@H](NC(=O)c2c(Cl)cccc2Cl)C(=O)O)c1` was tested. Which pIC50 did it give?
Answer: > 5.00

Question: How did the pIC50 turn out when `N=C(N)Nc1ccc2ccn(CCC(=O)NC[C@H](NC(=O)c3c(Cl)cccc3Cl)C(=O)O)c2c1` was run?
Answer: > 5.00

Question: `O=C(CNC(=O)c1cccc(NC2=NCCCN2)c1)NC[C@H](NC(=O)c1c(Cl)cc(-c2ccccc2)cc1Cl)C(=O)O` was tested. Which pIC50 did it give?
Answer: > 7.00

Question: With `C/N=C(\NC)Nc1cccc(C(=O)NCC(=O)NC[C@H](NC(=O)c2c(Cl)cc(-c3ccccc3)cc2Cl)C(=O)O)c1` as the molecule, how does the pIC50 read?
Answer: 7.00

Question: With `N#Cc1cc(NC(=N)N)cc(C(=O)NCC(=O)NC[C@H](NC(=O)c2c(Cl)cc(-c3ccccc3)cc2Cl)C(=O)O)c1` as the molecule, how does the pIC50 read?
Answer: > 7.00

Question: How did the pIC50 turn out when `O=C(CNC(=O)c1cccc(NC2=NCCCS2)c1)NC[C@H](NC(=O)c1c(Cl)cc(-c2ccccc2)cc1Cl)C(=O)O` was run?
Answer: > 7.00

Question: `CS(=O)(=O)c1ccc(-c2cc(Cl)c(C(=O)N[C@@H](CNC(=O)CNC(=O)c3cccc(NC(=N)N)c3)C(=O)O)c(Cl)c2)cc1` was tested. Which pIC50 did it give?
Answer: > 7.00

Question: `O=C(CNC(=O)c1cccc(NC2=NCC(F)CN2)c1)NC[C@H](NC(=O)c1c(Cl)cc(N2CCS(=O)(=O)CC2)cc1Cl)C(=O)O` (stereo partly drawn) was tested. Which pIC50 did it give?
Answer: > 7.00

Question: How did the pIC50 turn out when `N=C(N)Nc1cccc(C(=O)NCC(=O)NC[C@H](NC(=O)c2c(Cl)cc(N3CCOCC3)cc2Cl)C(=O)O)c1` was run?
Answer: > 7.00

Question: `N=C(N)Nc1cccc(C(=O)NCC(=O)NC[C@H](NC(=O)c2c(Cl)cccc2Cl)C(=O)O)c1` was tested. Which pIC50 did it give?
Answer: > 7.00

Question: `N#C/N=C(\N)Nc1cccc(C(=O)NCC(=O)NC[C@H](NC(=O)c2c(Cl)cccc2Cl)C(=O)O)c1` was tested. Which pIC50 did it give?
Answer: 7.00

Question: `CN(CC(=O)NC[C@H](NC(=O)c1c(Cl)cc(-c2ccccc2)cc1Cl)C(=O)O)C(=O)c1cccc(NC(=N)N)c1` was tested. Which pIC50 did it give?
Answer: 7.00

Question: With `O=C(CNC(=O)c1cccc(NC2=NCC(F)CN2)c1)NC[C@H](NC(=O)c1c(Cl)cc(-c2ccccc2)cc1Cl)C(=O)O` (stereo partly drawn) as the molecule, how does the pIC50 read?
Answer: > 7.00

Question: `Cc1cccc(Cl)c1C(=O)N[C@@H](CNC(=O)CNC(=O)c1cccc(NC(=N)N)c1)C(=O)O` was tested. Which pIC50 did it give?
Answer: > 6.00

Question: `O=C(CNC(=O)c1cccc(NC2=NCC(F)CN2)c1)NC[C@H](NC(=O)c1c(Cl)cc(N2CCOCC2)cc1Cl)C(=O)O` (stereo partly drawn) was tested. Which pIC50 did it give?
Answer: > 7.00

Question: How did the pIC50 turn out when `O=C(CNC(=O)c1cccc(NC2=NCC(F)CN2)c1)NC[C@H](NC(=O)c1c(Cl)cc(-c2ccc3cn[nH]c3c2)cc1Cl)C(=O)O` (stereo partly drawn) was run?
Answer: > 7.00

Question: How did the pIC50 turn out when `O=C(CNC(=O)c1cccc(NC2=NCC(F)(F)CN2)c1)NC[C@H](NC(=O)c1c(Cl)cc(-c2ccccc2)cc1Cl)C(=O)O` was run?
Answer: > 7.00

Question: With `O=C(CNC(=O)c1cccc(NC2=NCC(F)(F)CN2)c1)NC[C@H](NC(=O)c1c(Cl)cc(N2CCOCC2)cc1Cl)C(=O)O` as the molecule, how does the pIC50 read?
Answer: > 7.00

Question: With `O=C(CNC(=O)c1cccc(NC2=NCCCO2)c1)NC[C@H](NC(=O)c1c(Cl)cc(-c2ccccc2)cc1Cl)C(=O)O` as the molecule, how does the pIC50 read?
Answer: > 7.00

Question: `COc1ccc(Nc2cccc(C(=O)NCC(=O)NC[C@H](NC(=O)c3c(Cl)cccc3Cl)C(=O)O)c2)nc1` was tested. Which pIC50 did it give?
Answer: > 4.30

Question: With `C[C@@H](NC(=O)c1cccc(NC2=NCC(F)CN2)c1)C(=O)NC[C@H](NC(=O)c1c(Cl)cc(-c2ccccc2)cc1Cl)C(=O)O` (stereo partly drawn) as the molecule, how does the pIC50 read?
Answer: 7.00

Question: How did the pIC50 turn out when `N=C(N)Nc1ccc2c(c1)C(NCC(=O)NC[C@H](NC(=O)c1c(Cl)cccc1Cl)C(=O)O)CCO2` (stereo partly drawn) was run?
Answer: > 6.00
